How the values were obtained:
[1] = target: T1, ENOX2 (Homo sapiens, UniProt Q16206); experiment: 2-D gel electrophoresis/western blot, incubation with 15 μM NADH compared to no NADH; conditions: 15 μM NADH in the assay compared to no NADH, FIG. 1
T1 sequence (Q16206 1-610): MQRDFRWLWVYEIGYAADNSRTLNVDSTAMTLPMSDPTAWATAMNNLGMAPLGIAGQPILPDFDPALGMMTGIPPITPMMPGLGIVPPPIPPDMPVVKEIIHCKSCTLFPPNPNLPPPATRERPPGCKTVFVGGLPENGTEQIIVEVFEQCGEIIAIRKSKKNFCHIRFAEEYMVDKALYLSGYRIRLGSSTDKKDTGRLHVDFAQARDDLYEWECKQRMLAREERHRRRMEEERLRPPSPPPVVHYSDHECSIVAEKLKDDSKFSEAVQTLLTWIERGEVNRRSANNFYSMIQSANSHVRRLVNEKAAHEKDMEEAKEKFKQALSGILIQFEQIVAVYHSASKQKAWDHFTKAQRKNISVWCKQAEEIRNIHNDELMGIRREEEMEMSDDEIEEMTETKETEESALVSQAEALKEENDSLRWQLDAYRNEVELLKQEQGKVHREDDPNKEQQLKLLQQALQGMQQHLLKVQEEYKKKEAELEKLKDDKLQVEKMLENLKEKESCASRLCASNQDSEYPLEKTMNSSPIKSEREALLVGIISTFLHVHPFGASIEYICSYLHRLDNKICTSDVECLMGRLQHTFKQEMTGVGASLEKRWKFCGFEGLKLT
Procedure: In order to maintain an active ENOX2 during western blotting with antibody, following blocking for 10 minutes with 1% milk and two rinses with TBST to remove excess milk, reduced pyridine nucleotides [NAD(P)H] were added at a concentration of 15 μM during incubation with the primary scFv antibody. NADH is preferred at a final concentration in the range of 10 μM. Incubation of the blot with antibody with or without shaking at any temperature between 4° C. and 40° C. for times of 1 to 16 hours depending on the concentration of NADH, the temperature and the antibody titer, preferably with incubation at 4° C. overnight (approximately 16 hours) with shaking.

[2] = target: T1, ENOX2; experiment: ENOX2 activity versus NADH concentration, Lineweaver-Burke plot with and without antibody; format: biochemical; conditions: FIG. 2
Source text: FIG. 2 is a graph that depicts the relationship of ENOX2 activity and concentration of NADH.

[3] = tested on: heavy (ca. 52 kDa) and light (ca. 25 kDa) immunoglobulin chain proteins; experiment: 2-D gel/western blot cross-reactivity with serum proteins; format: binding, human; conditions: on some blots
Source text: Separation in the first dimension was by isoelectric focusing over the pH range of 3 to 10 and separation in the second dimension was by 10 percent SDS-PAGE. Isoelectric points of the ENOX2 transcript variants were in the range of 3.2 to 6.3. The principal reactive proteins other than the ENOX2 forms were a 53 kDa isoelectric point pH 4.1, mostly phosphorylated alpha-fetuin (Labeled “R” in FIG. 8) which served as a convenient loading control and isoelectric point reference and a 79-85 kDa, isoelectric point pH 6.8 serotransferrin which served as a second point of reference for loading and as an isoelectric point reference. The two cross reactive reference proteins are present in a majority of sera and plasma of both cancer and non-cancer subjects.
For western blot analysis, 30 μL of sera was added to 120 μL of Rehydration Buffer (7M urea, 2 M thiourea, 2% (w/v) CHAPS [(3-[(3-cholamidopropyl)dimethylammonio]-1-propane-sulfonate), a nondenaturing zwitterionic detergent], 0.5% (w/v) ASB-14 (amidosulfobetaine-14, a zwitterionic detergent), 0.5% (v/v) ampholytes pH 3-10 (Bio-Rad), 0.5% (v/v) immobilized pH gradient (IPG) buffer pH 3-10 (Amersham-Pharmacia Biotech) and 65 mM dithiothreitol). The samples were quickly vortexed to mix sera with Rehydration Buffer. Four to six mg of protein were loaded for analysis. […] Quantitation utilized an algorithm developed for this purpose. […]

NC(=O)C1=CN([C@@H]2O[C@H](COP(=O)(O)OP(=O)(O)OC[C@H]3O[C@@H](n4cnc5c(N)ncnc54)[C@H](O)[C@@H]3O)[C@@H](O)[C@H]2O)C=CC1 [NADH]
increase in spot size and density of ENOX2 [1]: two-fold increase
NADH concentration at which maximum ENOX2 activity was achieved [2]: about 500 μM

B1: recombinant scFv: pan ENOX2 recombinant single chain variable region (scFv) antibody carrying an S tag, alkaline phosphatase linked (antibody, V domains shown)
VH: EVKLQESGTEVVKPGASVKLSCKASGYIFTSYDIDWVRQTPEQGLEWIGWIFPGEGSTEYNEKFKGRATLSVDKSSSTAYMELTRLTSEDSAVYFCARGDYYRRYFDLWGQGTTVTVSS
VL: ENVLTQSPAIMSASPGERVTMTCSASSSIRYIYWYQQKPGSSPRLLIYDTSNVAPGVPFRFSGSGSGTSYSLTINRMEAEDAATYYCQEWSGYPYTFGGGTKLELK
modifications: left off: things letters cannot carry; another chain or arm of the molecule; a dimerising Fc or GST; small tags and cut ends
notes: pan ENOX2 recombinant single chain variable region (scFv) antibody carrying an S tag, alkaline phosphatase linked
cross-reactivity with immunoglobulin chain proteins [3]: weakly cross-reactive
